Values of other authors as cited in patent US20130237424A1 (Cosmo Oil Co., LTD., priority 2010, published 2013).

Tested on: plants
Conditions: given with being dissolved in a solution

## NCC(=O)CCC(=O)O [5-aminolevulinic acid]
  duration of growth promoting effect: about 2 weeks
